The text below walks through data of paper PMC7179419 (Molecules, 2020).

Each structure is given as a SMILES string. Where two headings read alike, the source gives them in different places.

In data set [1] the test system is human colon adenocarcinoma cell line (LoVo). The data set can be described thus: cells. The class given is cell-based. Conditions: for IC50: LoVo, 72 h, read-out: LoVo IC50; for SI (LoVo): SI = IC50 BALB/3T3 / IC50 LoVo. How it is done:
(§1) For a more accurate evaluation of cytotoxic activity, the effect on normal murine embryonic fibroblast cell line (BALB/3T3) was also tested according to the previously published procedure. Detailed information concerning antiproliferation assay can be found in Supplementary Materials. […]
(§2) The antiproliferative activity
(§3) Four human cancer cell lines and one murine normal cell line were used to evaluate […]
(§4) (A549), human breast adenocarcinoma (MCF-7), human colon adenocarcinoma cell lines sensitive and resistant to doxorubicin (LoVo), respectively, and normal murine embryonic fibroblast cell line (BALB/3T3). The BALB/3T3 cell line was purchased from the American Type Culture Collection (ATCC, Manassas, VA, USA), A549 and MCF-7 cell lines—from European Collection of Authenticated Cell Cultures (Salisbury, UK), LoVo cell line was purchased from the ATCC (ATCC, Manassas, VA, USA). All the cell lines are maintained in the Institute of Immunology and Experimental Therapy (IIET), Wroclaw, Poland. Human lung adenocarcinoma cell line was cultured in mixture of OptiMEM and RPMI 1640 (1:1) medium (IIET, Wroclaw, Poland), supplemented with 5% fetal bovine serum (GE Healthcare, Logan, UT, USA) and 2 mM L-glutamine (Sigma-Aldrich, Merck KGaA, Saint Louis, MO, USA). Human breast adenocarcinoma cell line was cultured in mixture of Eagle medium (IIET, Wroclaw, Poland), supplemented with 10% fetal bovine serum, 2 mM L-glutamine, 8 μg/mL insulin and 1% amino-acids (Sigma-Aldrich, Merck KGaA, Saint Louis, MO, USA).
(§5) Human colon adenocarcinoma cell lines were cultured in mixture of OptiMEM and RPMI 1640 (1:1) medium (IIET, Wroclaw, Poland), supplemented with 5% fetal bovine serum (GE Healthcare, Logan UT, USA), 2 mM L-glutamine, 1 mM sodium pyruvate (Sigma-Aldrich, Merck KGaA, Saint Louis, MO, USA). Murine embryonic fibroblast cells were cultured in […]
(§6) Dulbecco medium (Life Technologies Limited, Paisley, UK), supplemented with 10% fetal bovine serum (GE Healthcare, Logan, UT, USA) and 2 mM glutamine (Sigma-Aldrich, Merck KGaA, Saint Louis, MO, USA). All culture media contained antibiotics: 100 U/mL penicillin and 100 μg/mL streptomycin (Polfa-Tarchomin, Warsaw, Poland). All cell lines were cultured during entire experiment in humid atmosphere at 37 °C and 5% CO2. Cells were tested for mycoplasma contamination by mycoplasma detection kit for conventional […]
(§7) The procedure is repeated every year or in the case of less frequently used lines:
(§8) The Antiproliferative Assays In Vitro
(§9) Twenty-four hours before adding the tested compounds, all cell lines were seeded in 384-well plates (Sarstedt, Nümbrecht, Germany) in appropriate media with 1x103 or 1,5x103

Data set [2] concerns human breast adenocarcinoma (MCF-7). The data set can be described thus: cells. In kind it is cell-based. Conditions: for IC50: read-out: MCF-7 IC50; for SI (MCF-7): SI = IC50 BALB/3T3 / IC50 MCF-7. The protocol: as §1, §2, §3, §4, §5, §6, §7, §8, §9
The subject of data set [3] is human lung adenocarcinoma (A549). The data set can be described thus: cells. The class given is cell-based. Particulars: for IC50: A549, 72 h, read-out: A549 IC50; for SI (A549): SI = IC50 BALB/3T3 / IC50 A549. How it is done: as §1, §2, §3, §4, §5, §6, §7, §8, §9
In data set [4] the test system is normal murine embryonic fibroblast cell line (BALB/3T3). The data set can be described thus: Antiproliferative assay in vitro (SRB, 72 h), BALB/3T3 normal cells. In kind it is cell-based. Particulars: normal cell line BALB/3T3, 72 h, mean ± SD. The protocol:
as §1, §2, §3, §4, §5, §6, §7, §8, §9

Data set [5] relates to tubulin. The arrangement: method as in PMID 2708333. Particulars: lower affinity relative to colchicine; cited from earlier work.

In the case of `COc1cc2c(c(OC)c1OC)-c1ccc(=O)c(O)cc1[C@@H](NC(C)=O)CC2` [Compound 1, 10-demethylcolchicine], the IC50 (as a rule, the concentration at which inhibition is half-maximal) stood at 6000 ± 1880 nM in data set [1] (Homo sapiens); 11200 ± 2520 nM in data set [2] (Homo sapiens, MCF7, 72 h); 13000 ± 1790 nM in data set [3] (Homo sapiens); 10200 ± 960 nM in data set [4] (Mus musculus). For the same compound, the “SI (LoVo)” value in data set [1] is on record as 1.71. Besides, in data set [2], the “SI (MCF-7)” value turned out to be 0.91. The “SI (A549)” value in data set [3] turned out to be 0.79.
For `COc1cc2c(c(OC)c1OC)-c1ccc(OC(C)=O)c(=O)cc1[C@@H](NC(C)=O)CC2` [Compound 2a, Acetyl Ester of Colchiceine], the melting point (usually the temperature, or range, at which the solid turns liquid) was in the range of 120 to 122 °C.
Same read-out and setting: next, `COc1cc2c(c(OC)c1OC)-c1ccc(OC(=O)C(C)C)c(=O)cc1[C@@H](NC(C)=O)CC2` [Compound 2c, Isobutyryl Ester of Colchiceine]: 123 to 125 °C.
For `COc1cc2c(c(O)c1OC)-c1ccc(SC)c(=O)cc1C(NC(C)=O)CC2` (stereo not drawn) [Compound 3, 1-demethylthiocolchicine], the IC50 was 110 ± 30 nM in data set [1] (Homo sapiens); 120 ± 50 nM in data set [2] (Homo sapiens, MCF7, 72 h); 820 ± 20 nM in data set [3] (Homo sapiens); 610 ± 140 nM in data set [4] (Mus musculus). In addition, the “SI (MCF-7)” value in data set [2] is 4.92. The “SI (A549)” value in data set [3] is listed as 0.74.
As for `COc1cc2c(c(OC(C)=O)c1OC)-c1ccc(SC)c(=O)cc1C(NC(C)=O)CC2` (stereo not drawn) [Compound 4a, Acetyl Ester of 1-demethylthiocolchicine], the IC50 was determined as 110 ± 20 nM in data set [1] (Homo sapiens); 100 ± 20 nM in data set [2] (Homo sapiens, MCF7, 72 h); 480 ± 150 nM in data set [3] (Homo sapiens); 650 ± 120 nM in data set [4] (Mus musculus). Further, the “SI (A549)” value in data set [3] is recorded as 1.36.
Regarding `CCC(=O)Oc1c(OC)c(OC)cc2c1-c1ccc(SC)c(=O)cc1[C@@H](NC(C)=O)CC2` [Compound 4b, Propionyl Ester of 1-demethylthiocolchicine], the IC50 worked out at 960 ± 130 nM in data set [2] (Homo sapiens, MCF7, 72 h); 970 ± 40 nM in data set [3] (Homo sapiens); 750 ± 100 nM in data set [4] (Mus musculus).
For `COc1cc2c(c(OC(=O)C(C)C)c1OC)-c1ccc(SC)c(=O)cc1[C@@H](NC(C)=O)CC2` [Compound 4c, Isobutyryl Ester of 1-demethylthiocolchicine], the IC50 was found to be 560 ± 60 nM in data set [1] (Homo sapiens); 860 ± 100 nM in data set [2] (Homo sapiens, MCF7, 72 h); 890 ± 70 nM in data set [3] (Homo sapiens); 710 ± 30 nM in data set [4] (Mus musculus). Moreover, the “SI (LoVo)” value in data set [1] came out at 1.27. Besides, the “SI (MCF-7)” value in data set [2] amounted to 0.83. The “SI (A549)” value in data set [3] turned out to be 0.80.
As to `COc1cc2c(c(OC(=O)c3ccccc3)c1OC)-c1ccc(SC)c(=O)cc1[C@@H](NC(C)=O)CC2` [Compound 4d, Benzyl Ester of 1-demethylthiocolchicine], the IC50 in data set [1] (Homo sapiens) is 100 ± 80 nM; in data set [2] (Homo sapiens, MCF7, 72 h), 780 ± 220 nM; in data set [3] (Homo sapiens), 600 ± 310 nM; in data set [4] (Mus musculus), 450 ± 230 nM. In data set [1], the “SI (LoVo)” value is 4.71. In addition, the “SI (MCF-7)” value in data set [2] is recorded as 0.58. For the same compound, in data set [3], the “SI (A549)” value is 0.75.
On to `COC(=O)Oc1c(OC)c(OC)cc2c1-c1ccc(SC)c(=O)cc1C(NC(C)=O)CC2` (stereo not drawn) [Compound 4e, Methyl Carbonate of 1-demethylthiocolchicine], for which the IC50 in data set [1] (Homo sapiens) came out at 430 ± 190 nM; in data set [2] (Homo sapiens, MCF7, 72 h), 1020 ± 100 nM; in data set [3] (Homo sapiens), 900 ± 90 nM; in data set [4] (Mus musculus) it was 780 ± 60 nM. Further, the “SI (LoVo)” value in data set [1] turned out to be 1.84. Moreover, the “SI (MCF-7)” value in data set [2] turned out to be 0.77. Also, the “SI (A549)” value in data set [3] is 0.87.
On to `CCOC(=O)Oc1c(OC)c(OC)cc2c1-c1ccc(SC)c(=O)cc1[C@@H](NC(C)=O)CC2` [Compound 4f, Ethyl Carbonate of 1-demethylthiocolchicine], for which the IC50 in data set [1] (Homo sapiens) was determined as 790 ± 160 nM; in data set [2] (Homo sapiens, MCF7, 72 h), 950 ± 200 nM; in data set [3] (Homo sapiens), 960 ± 130 nM; in data set [4] (Mus musculus) it was 1030 ± 200 nM. For the same compound, in data set [1], the “SI (LoVo)” value is on record as 1.31. Moreover, the “SI (MCF-7)” value in data set [2] was 1.09. Moreover, in data set [3], the “SI (A549)” value turned out to be 1.08.
As to `N.N.[Cl][Pt][Cl]` [cisplatin, reference compound], the IC50 worked out at 3800 ± 280 nM in data set [1] (SRB, mean ± SD); 3050 ± 670 nM in data set [2] (MCF-7, 72 h, SRB, mean ± SD); 3600 ± 250 nM in data set [3] (SRB, mean ± SD); 2910 ± 1830 nM in data set [4]. The “SI (LoVo)” value in data set [1] was 0.77. Besides, the “SI (MCF-7)” value in data set [2] stood at 0.95. Moreover, the “SI (A549)” value in data set [3] was 0.81.
`COc1cccc2c1C(=O)c1c(O)c3c(c(O)c1C2=O)C[C@@](O)(C(=O)CO)C[C@@H]3O[C@H]1C[C@H](N)[C@H](O)[C@H](C)O1` [doxorubicin, reference compound]: the IC50 in data set [1] (Homo sapiens, SRB, mean ± SD) came to 80 ± 30 nM; in data set [2] (Homo sapiens, MCF7, MCF-7, 72 h, SRB, mean ± SD), 150 ± 50 nM; in data set [3] (Homo sapiens, SRB, mean ± SD) it was 160 ± 30 nM; in data set [4] (Mus musculus), 40 ± 30 nM. In data set [1], the “SI (LoVo)” value is 0.49. In addition, the “SI (MCF-7)” value in data set [2] is 0.26. Also, the “SI (A549)” value in data set [3] is listed as 0.25.
Take `COc1cc2c(c(OC)c1OC)-c1ccc(=O)c(OC)cc1[C@@H](NC(C)=O)CC2` [isocolchicine]: the “affinity for binding to tubulin, times lower than colchicine” value in data set [5] is recorded as 500 times.
